Laboratory results published in patent US20070072897A1, “Phenylaminopropanol derivatives and methods of their use” (Wyeth, priority 2005, published 2007).
Structures can show the parent of a compound that is named as a salt.

Tests used:
human 5-HT2A receptor = molecular target: T1, human 5-HT2A receptor (Homo sapiens, UniProt P28223); test: 5-HT2A FLIPR assay (calcium response to DOI) in CHO cells; type: cell-based; settings: for IC50: antagonist inhibition of 3 nM DOI stimulation, CHO cells, FLIPR; for inhibition at 1 µM: CHO, read-out: 5-HT2A Percentage inhibition at 1 μM
T1 construct: expressed in transfected cells; host or cells: CHO
Method: Cells are washed with PBS without Ca^2+ and 3 mL Trypsin is added to dissociate cells. After 3 minute incubation, 7 mL Trypsin Neutralizing Solution is added. Cells are then aspirated from flask and mixed in a 50 mL conical tube. 10 μL sample is used to count cells on a hemacytometer. […] Two 96-well drug plates are prepared for each cell plate. Plate 1 will contain compounds to be tested and plate 2 will contain the agonist DOI (3 nM) to activate a calcium response. Specific details of compound preparation are listed below. […] Outside wells are not used due to an edge effect seen in these cells. The reference compounds DOI and 5-HT are used as standard 5HT agonists. […] Standards for plate one are Vehicle, 1 μM DOI, and 3 nM MDL. […] On the day of the assay, test compound solutions of appropriate concentrations are diluted in assay buffer as described for single concentration testing. This procedure is followed to ensure that the solvent concentration is consistent across dilutions. The typical concentration testing range of compounds is 10^−10—10^−5 M in half log or full log increments. A 10 μM DOI stock is diluted to 60 nM and added to the respective wells. The pipeting station of the FLIPR will make an additional 20-fold dilution for a final concentration of 3 nM. Standards for this plate include Vehicle and 3 nM DOI. Contents of dye vial (Molecular Devices #R8090) are dissolved in 100 mL of 1×HBSS supplemented with 20 mM HEPES. Aliquots can be frozen at −20° C. for up to one week for future use. On the day of assay, dye is thawed and diluted to half concentration. […] Cells are allowed to adhere for 24 hours in 96-well plates. […] Cell, compound and DOI plates are loaded into the FLIPR machine. The baseline fluorescence level is read once every second for 1 minute. Compound (10 μL) is transferred from the compound plate to the cells and the fluorescence level recorded every 6 seconds for 2 minutes to determine any agonist activity. Baseline fluorescence is recorded again every second for 10 seconds. For antagonist determination, 10 μL of 3 nM DOI is transferred from the DOI plate to the cells and the fluorescence level recorded every 6 seconds for 5 minutes. The pipetting unit of the FLIPR machine completes all transfers. […] The data are log transformed prior to analysis.

human hNET = molecular target: T2, human hNET (Homo sapiens, UniProt P23975); test: Norepinephrine (NE) uptake assay in MDCK-Net6 cells; type: cell-based; settings: [3H]NE uptake; for EC50: MDCK-Net6 cells stably transfected with hNET; for inhibition at 1 µM: MDCK-Net6 cells, read-out: hNET Percentage inhibition at 1 μM
T2 construct: expressed in transfected cells; host or cells: MDCK (MDCK-Net6)
Method: Cells were plated at 300,000/T75 flask and cells were split twice weekly. […] Cells were plated at 250,000 cells/T75 flask and split twice weekly.
Norepinephrine (NE) Uptake Assay
On day 1, cells were plated at 3,000 cells/well in growth medium and maintained in a cell incubator (37° C., 5% CO2). On day 2, growth medium was replaced with 200 μl of assay buffer (25 mM HEPES; 120 mM NaCl; 5 mM KCl; 2.5 mM CaCl2; 1.2 mM MgSO4; 2 mg/ml glucose (pH 7.4, 37° C.)) containing 0.2 mg/ml ascorbic acid and 10 μM pargyline. Plates containing cells with 200 μl of assay buffer were equilibrated for 10 minutes at 37° C. prior to addition of compounds. A stock solution of desipramine was prepared in DMSO (10 mM) and delivered to triplicate wells containing cells for a final test concentration of 1 μM. Data from these wells were used to define non-specific NE uptake (minimum NE uptake). Test compounds were prepared in DMSO (10 mM) and diluted in assay buffer according to test range (1 to 10,000 nM). Twenty-five microliters of assay buffer (maximum NE uptake) or test compound were added directly to triplicate wells containing cells in 200 μl of assay buffer. The cells in assay buffer with test compounds were incubated for 20 minutes at 37° C. […] The reaction was terminated by decanting the supernatant from the plate. The plates containing cells were washed twice with 200 μl assay buffer (37° C.) to remove free radioligand. The plates were then inverted, left to dry for 2 minutes, then reinverted and air-dried for an additional 10 minutes. […] After cell lysis, 75 μl of scintillation cocktail was added to each well and the plates were sealed with film tape. The plates were returned to the shake table and vigorously shaken for a minimum of 10 minutes to ensure adequate partitioning of organic and aqueous solutions. The plates were counted in a Wallac Microbeta counter (PerkinElmer) to collect the raw cpm data.
For each experiment, a data stream of cpm values collected from the Wallac Microbeta counter was downloaded to a Microsoft Excel statistical application program. Calculations of EC50 values were made using the transformed-both-sides logistic dose response program written by Wyeth Biometrics Department.

T1 sequence (P28223 whole entry): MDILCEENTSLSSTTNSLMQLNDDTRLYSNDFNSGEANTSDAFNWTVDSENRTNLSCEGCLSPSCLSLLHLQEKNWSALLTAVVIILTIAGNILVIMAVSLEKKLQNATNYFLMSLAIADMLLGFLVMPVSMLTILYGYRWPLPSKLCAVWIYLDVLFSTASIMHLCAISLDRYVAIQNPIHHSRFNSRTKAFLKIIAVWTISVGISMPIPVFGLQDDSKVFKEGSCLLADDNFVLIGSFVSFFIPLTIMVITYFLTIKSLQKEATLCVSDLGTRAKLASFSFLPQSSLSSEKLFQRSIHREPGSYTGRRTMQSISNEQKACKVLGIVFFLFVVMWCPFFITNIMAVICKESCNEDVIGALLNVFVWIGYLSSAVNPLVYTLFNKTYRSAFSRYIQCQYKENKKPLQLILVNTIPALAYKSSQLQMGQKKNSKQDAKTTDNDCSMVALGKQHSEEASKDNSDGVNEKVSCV
T2 sequence (P23975 whole entry): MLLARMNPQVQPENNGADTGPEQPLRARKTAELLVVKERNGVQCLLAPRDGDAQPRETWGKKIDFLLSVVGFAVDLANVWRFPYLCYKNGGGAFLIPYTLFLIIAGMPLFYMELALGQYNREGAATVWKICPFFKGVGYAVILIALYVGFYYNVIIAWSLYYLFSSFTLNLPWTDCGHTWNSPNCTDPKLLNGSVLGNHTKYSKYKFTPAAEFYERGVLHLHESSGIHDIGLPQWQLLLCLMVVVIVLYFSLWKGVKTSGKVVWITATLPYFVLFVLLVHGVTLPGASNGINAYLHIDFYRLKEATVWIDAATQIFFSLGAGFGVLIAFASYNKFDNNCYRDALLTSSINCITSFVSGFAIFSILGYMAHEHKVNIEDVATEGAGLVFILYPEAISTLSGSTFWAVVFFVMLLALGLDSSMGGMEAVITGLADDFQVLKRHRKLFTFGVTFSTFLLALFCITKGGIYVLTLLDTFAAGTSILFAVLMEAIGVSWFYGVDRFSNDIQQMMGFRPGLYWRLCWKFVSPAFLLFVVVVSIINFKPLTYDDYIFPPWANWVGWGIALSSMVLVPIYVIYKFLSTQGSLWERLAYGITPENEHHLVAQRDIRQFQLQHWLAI

IC50 (human 5-HT2A receptor) [nM]	EC50 (human hNET) [nM]	Compound	inhibition at 1 µM (human 5-HT2A receptor) [%]	inhibition at 1 µM (human hNET) [%]
281	32	CNC[C@@H](O)[C@H](c1ccccc1)n1ccc2cc(OCc3ccc(OC)cc3)ccc21 [Example 7, (1S,2R)-1-{5-[(4-methoxybenzyl)oxy]-1H-indol-1-yl}-3-(methylamino)-1-phenylpropan-2-ol hydrochloride]	–	–
712	67	CNC[C@@H](O)[C@H](c1ccccc1)n1ccc2cc(OCc3ccc(Cl)cc3)ccc21 [Example 10, (1S,2R)-1-{5-[(4-chlorobenzyl)oxy]-1H-indol-1-yl}-3-(methylamino)-1-phenylpropan-2-ol hydrochloride]	–	–
1260	52	CNC[C@@H](O)[C@H](c1ccccc1)n1ccc2cc(OCc3ccccc3F)ccc21 [Example 11, (1S,2R)-1-{5-[(2-fluorobenzyl)oxy]-1H-indol-1-yl}-3-(methylamino)-1-phenylpropan-2-ol hydrochloride]	–	–
979	36	CNC[C@@H](O)[C@H](c1ccccc1)n1ccc2cc(OCc3cccc(F)c3)ccc21 [Example 12, (1S,2R)-1-{5-[(3-fluorobenzyl)oxy]-1H-indol-1-yl}-3-(methylamino)-1-phenylpropan-2-ol hydrochloride]	–	–
468	31	CNC[C@@H](O)[C@H](c1ccccc1)n1ccc2cc(OCc3ccc(F)cc3)ccc21 [Example 13, (1S,2R)-1-{5-[(4-fluorobenzyl)oxy]-1H-indol-1-yl}-3-(methylamino)-1-phenylpropan-2-ol hydrochloride]	–	–
442	109	CNC[C@@H](O)[C@H](c1ccccc1)n1ccc2cc(OCc3ccccc3C)ccc21 [Example 14, (1S,2R)-3-(methylamino)-1-{5-[(2-methylbenzyl)oxy]-1H-indol-1-yl}-1-phenylpropan-2-ol hydrochloride]	–	–
809	88	CNC[C@@H](O)[C@H](c1ccccc1)n1ccc2cc(OCc3cccc(C)c3)ccc21 [Example 15, (1S,2R)-3-(methylamino)-1-{5-[(3-methylbenzyl)oxy]-1H-indol-1-yl}-1-phenylpropan-2-ol hydrochloride]	–	–
4120	37	CNC[C@@H](O)[C@H](c1ccccc1)n1ccc2cc(OCc3ccc(C)cc3)ccc21 [Example 16, (1S,2R)-3-(methylamino)-1-{5-[(4-methylbenzyl)oxy]-1H-indol-1-yl}-1-phenylpropan-2-ol hydrochloride]	–	–

Further lines, the compound ahead of its results:

Compound	IC50 (human 5-HT2A receptor) [nM]	EC50 (human hNET) [nM]	inhibition at 1 µM (human 5-HT2A receptor) [%]	inhibition at 1 µM (human hNET) [%]
CNC[C@@H](O)[C@H](c1ccccc1)n1ccc2cc(OCc3ccccc3Cl)ccc21 [Example 8, (1S,2R)-1-{5-[(2-chlorobenzyl)oxy]-1H-indol-1-yl}-3-(methylamino)-1-phenylpropan-2-ol hydrochloride]	658	147	–	–
CNC[C@@H](O)[C@H](c1ccccc1)n1ccc2cc(OCc3cccc(Cl)c3)ccc21 [Example 9, (1S,2R)-1-{5-[(3-chlorobenzyl)oxy]-1H-indol-1-yl}-3-(methylamino)-1-phenylpropan-2-ol hydrochloride]	–	89	39	–
CNC[C@@H](O)[C@H](c1ccccc1)n1ccc2cc(OCCc3ccccc3)ccc21 [Example 18, (1S,2R)-3-(methylamino)-1-phenyl-1-[5-(2-phenylethoxy)-1H-indol-1-yl]propan-2-ol hydrochloride]	1200	219	–	–
CNC[C@@H](O)[C@H](c1ccccc1)n1ccc2cc(Oc3ccccc3)ccc21 [Example 19, (1S,2R)-3-(methylamino)-1-[5-(phenoxy)-1H-indol-1-yl]-1-phenylpropan-2-ol hydrochloride]	–	–	39	27
CNC[C@@H](O)[C@H](c1ccccc1)n1ccc2c(Oc3ccccc3)cccc21 [Example 20, (1S,2R)-3-(methylamino)-1-[4-(phenoxy)-1H-indol-1-yl]-1-phenylpropan-2-ol hydrochloride]	–	227	30	–
CNC[C@@H](O)[C@H](c1ccccc1)n1ccc2c(-c3ccccc3)cccc21 [Example 21, (1S,2R)-3-(methylamino)-1-phenyl-1-(4-phenyl-1H-indol-1-yl)propan-2-ol hydrochloride]	–	–	27	56
CNC[C@@H](O)[C@H](c1ccccc1)n1ccc2ccc(-c3ccccc3)cc21 [Example 22, (1S,2R)-3-(methylamino)-1-phenyl-1-(6-phenyl-1H-indol-1-yl)propan-2-ol hydrochloride]	–	35	16	–
CNC[C@@H](O)[C@H](c1ccccc1)n1ccc2cccc(-c3ccccc3)c21 [Example 23, (1S,2R)-3-(methylamino)-1-phenyl-1-(7-phenyl-1H-indol-1-yl)propan-2-ol hydrochloride]	2600	–	–	48
CNC[C@@H](O)[C@H](c1cccc(F)c1)n1ccc2cc(OCc3ccccc3)ccc21 [Example 24, (1S,2R)-1-[5-(benzyloxy)-1H-indol-1-yl]-1-(3-fluorophenyl)-3-(methylamino)propan-2-ol hydrochloride]	–	36	20	–
CNC[C@@H](O)[C@H](c1ccccc1)N1CCc2cc(OCc3ccccc3)ccc21 [Example 26, (1S,2R)-1-[5-(benzyloxy)-2,3-dihydro-1H-indol-1-yl]-3-(methylamino)-1-phenylpropan-2-ol hydrochloride]	–	45	23	–
CNC[C@@H](O)[C@H](c1ccccc1)N1C(=O)C2(CCCCC2)c2cc(Cl)ccc21 [Example 27, 5′-chloro-1′-[(1S,2R)-2-hydroxy-3-(methylamino)-1-phenylpropyl]spiro[cyclohexane-1,3′-indol]-2′(1′H)-one hydrochloride]	423	89	–	–
CNC[C@@H](O)[C@H](c1ccccc1)N1C(=O)C2(CCCCC2)c2ccc(Cl)cc21 [Example 28, 6′-Chloro-1′-[(1S,2R)-2-hydroxy-3-(methylamino)-1-phenylpropyl]spiro[cyclohexane-1,3′-indol]-2′(1′H)-one hydrochloride]	213	448	–	–
CNC[C@@H](O)[C@H](c1ccccc1)N1C(=O)C2(CCCCC2)c2ccc(F)cc21 [Example 29, 6′-fluoro-1′-[(1S,2R)-2-hydroxy-3-(methylamino)-1-phenylpropyl]spiro[cyclohexane-1,3′-indol]-2′(1′H)-one hydrochloride]	106	43	–	–
CNC[C@@H](O)[C@H](c1ccccc1)N1C(=O)C2(CCCCC2)c2cc(F)ccc21 [Example 30, 5′-fluoro-1′-[(1S,2R)-2-hydroxy-3-(methylamino)-1-phenylpropyl]spiro[cyclohexane-1,3′-indol]-2′(1′H)-one hydrochloride]	283	41	–	–
